Where two headings read alike, the source gives them in different places.
Columns and labels:
[1] = target: T1, human recombinant CB1R (Homo sapiens, UniProt P21554); assay: Competition binding assay, displacement of [3H]-CP-55,940 from membranes of HEK-293 cells overexpressing CB1R; conditions: for Ki: [3H]-CP-55,940 displacement, HEK-293 membranes, 90 min at 30 °C, Cheng-Prusoff, read-out: Ki hCB1R (µM ± S.E.); for inhibition at 10 µM: read-out: % Displacement/ Max. Conc. Tested, hCB1R
T1 construct: purchased Perkin-Elmer, Italy; host or cells: HEK-293 cells (membranes)
Procedure: (§1) The binding affinities (Ki values) of the compounds for human recombinant hCB1R and hCB2R were determined as previously described, using SR144528 as a reference compound [30], and are reported in Table 1.
(§2) Compound affinity for CB1R and CB2R was measured as previously reported. […] Competition curves were performed by displacing [^3H]-CP-55 940 with increasing concentrations of compounds (0.1 nM–10 or 25 μM). […] All compounds were tested following the procedure described by the manufacturer (Perkin-Elmer, Italy). Displacement curves were generated by incubating drugs with [^3H]-CP-55 940 for 90 min at 30 °C. Ki values were calculated by applying the Cheng−Prusoff equation to the IC50 values for the displacement of the bound radioligand by increasing concentrations of the test compound. Data represent the mean values of three independent experiments performed in duplicate and are expressed as the average of Ki (µM) ± standard deviation. Data were analyzed using PRISM.9.3 software (GraphPad Software Inc, San Diego, CA, USA).

[2] = target: human CB2R (Homo sapiens, UniProt P34972); assay: Competition binding assay, displacement of [3H]-CP-55,940 from membranes of HEK-293 cells overexpressing CB2R; set-up: purchased Perkin-Elmer, Italy; host or cells: HEK-293 cells (membranes); conditions: for Ki: [3H]-CP-55,940 displacement, HEK-293 membranes, 90 min at 30 °C, Cheng-Prusoff, read-out: Ki hCB2R (µM ± S.E.)
Procedure: as §1, §2

[3] = max conc. tested 10 µM, read-out: % Displacement/ Max Conc. Tested, hCB2R (converted)

Sequence of human CB2R (P34972 whole entry): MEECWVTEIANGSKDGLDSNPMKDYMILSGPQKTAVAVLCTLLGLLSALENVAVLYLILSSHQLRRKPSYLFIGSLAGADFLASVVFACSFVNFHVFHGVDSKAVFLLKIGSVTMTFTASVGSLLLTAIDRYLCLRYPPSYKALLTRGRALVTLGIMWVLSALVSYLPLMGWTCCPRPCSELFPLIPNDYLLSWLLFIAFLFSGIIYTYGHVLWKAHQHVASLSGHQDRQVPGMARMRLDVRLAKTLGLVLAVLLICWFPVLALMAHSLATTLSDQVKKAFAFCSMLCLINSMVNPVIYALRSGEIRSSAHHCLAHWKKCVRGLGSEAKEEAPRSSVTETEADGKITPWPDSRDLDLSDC
T1 sequence (P21554 whole entry): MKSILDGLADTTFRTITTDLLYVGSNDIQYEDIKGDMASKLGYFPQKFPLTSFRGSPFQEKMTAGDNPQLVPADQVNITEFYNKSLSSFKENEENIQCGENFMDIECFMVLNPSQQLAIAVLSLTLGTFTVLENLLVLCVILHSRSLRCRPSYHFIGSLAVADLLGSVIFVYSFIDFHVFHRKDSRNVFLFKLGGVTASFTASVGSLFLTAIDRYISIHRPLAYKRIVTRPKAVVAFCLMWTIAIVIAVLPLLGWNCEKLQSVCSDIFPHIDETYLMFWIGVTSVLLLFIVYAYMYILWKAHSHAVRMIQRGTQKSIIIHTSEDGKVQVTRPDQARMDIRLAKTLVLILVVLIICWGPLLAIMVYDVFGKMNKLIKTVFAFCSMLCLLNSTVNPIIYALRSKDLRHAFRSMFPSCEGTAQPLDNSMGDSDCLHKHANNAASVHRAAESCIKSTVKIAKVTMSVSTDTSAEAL

CCN1CC(=NS(=O)(=O)c2ccc(C)cc2)N(CC)C1=O [Compound 1, N-[1,3-Diethyl-2-oxoimidazolidin-4-ylidene]-4-methylbenzenesulfonamide]
Ki [1]: > 10 µM | inhibition at 10 µM ([1]; max conc. tested 10 µM): 8.78% | Ki [2]: > 10 µM | inhibition at 10 µM [2, 3]: 7.7%

CN1CC(=NS(=O)(=O)c2ccccc2)N(C)C1=O [Compound 4a, N-[1,3-Dimethyl-2-oxoimidazolidin-4-ylidene]benzenesulfonamide]
Ki [1]: > 10 µM | inhibition at 10 µM ([1]; max conc. tested 10 µM): 32.8% | Ki [2]: > 10 µM | inhibition at 10 µM [2, 3]: 6.19%

Cc1ccc(S(=O)(=O)N=C2CN(C)C(=O)N2C)cc1 [Compound 4b, N-[1,3-Dimethyl-2-oxoimidazolidin-4-ylidene]-4-methylbenzenesulfonamide]
Ki [1]: > 10 µM | inhibition at 10 µM ([1]; max conc. tested 10 µM): 26.9% | Ki [2]: > 10 µM | inhibition at 10 µM [2, 3]: 7.08%

CN1CC(=NS(=O)(=O)c2ccc(Cl)cc2)N(C)C1=O [Compound 4c, 4-Chloro-N-[1,3-dimethyl-2-oxoimidazolidin-4-ylidene]benzenesulfonamide]
Ki [1]: > 10 µM | inhibition at 10 µM ([1]; max conc. tested 10 µM): 47.5% | Ki [2]: > 10 µM | inhibition at 10 µM [2, 3]: 12.3%

CN1CC(=NS(=O)(=O)c2ccc(Br)cc2)N(C)C1=O [Compound 4d, 4-Bromo-N-[1,3-dimethyl-2-oxoimidazolidin-4-ylidene]benzenesulfonamide]
Ki [1]: > 10 µM | inhibition at 10 µM ([1]; max conc. tested 10 µM): 14.9% | Ki [2]: > 10 µM | inhibition at 10 µM [2, 3]: 10.7%

CCN1CC(=NS(=O)(=O)c2ccccc2)N(CC)C1=O [Compound 4e, N-[1,3-Diethyl-2-oxoimidazolidin-4-ylidene]benzenesulfonamide]
Ki [1]: > 10 µM | inhibition at 10 µM ([1]; max conc. tested 10 µM): 22.7% | Ki [2]: > 10 µM | inhibition at 10 µM [2, 3]: 7.72%

CCN1CC(=NS(=O)(=O)c2ccc(Cl)cc2)N(CC)C1=O [Compound 4f, 4-Chloro-N-[1,3-diethyl-2-oxoimidazolidin-4-ylidene]benzenesulfonamide]
Ki [1]: > 10 µM | inhibition at 10 µM ([1]; max conc. tested 10 µM): 17.8% | Ki [2]: > 10 µM | inhibition at 10 µM [2, 3]: 14.9%

CCN1CC(=NS(=O)(=O)c2ccc(Br)cc2)N(CC)C1=O [Compound 4g, 4-Bromo-N-[1,3-diethyl-2-oxoimidazolidin-4-ylidene]benzenesulfonamide]
Ki [1]: > 10 µM | inhibition at 10 µM ([1]; max conc. tested 10 µM): 20.6% | Ki [2]: > 10 µM | inhibition at 10 µM [2, 3]: 13.4%

CC(C)(C)N1CC(=NS(C)(=O)=O)N(c2ccccc2)C1=O [Compound 9a, N-[1-tert-Butyl-2-oxo-3-phenylimidazolidin-4-ylidene]-methanesulfonamide]
Ki [1]: > 10 µM | inhibition at 10 µM [1]: 9.48% | Ki [2]: > 10 µM | inhibition at 10 µM [2, 3]: 8.84%

CC(C)(C)N1CC(=NS(=O)(=O)c2ccccc2)N(c2ccccc2)C1=O [Compound 9b, N-[1-tert-Butyl-2-oxo-3-phenylimidazolidin-4-ylidene]benzenesulfonamide]
Ki [1]: > 10 µM | inhibition at 10 µM [1]: 12% | Ki [2]: > 10 µM | inhibition at 10 µM [2, 3]: 22.6%

Cc1ccc(S(=O)(=O)N=C2CN(C(C)(C)C)C(=O)N2c2ccccc2)cc1 [Compound 9c, N-[1-tert-Butyl-2-oxo-3-phenylimidazolidin-4-ylidene]-4-methylbenzenesulfonamide]
Ki [1]: > 10 µM | inhibition at 10 µM [1]: 7.22% | Ki [2]: > 10 µM | inhibition at 10 µM [2, 3]: 5.39%

CC(C)(C)N1CC(=NS(=O)(=O)c2ccc(Br)cc2)N(c2ccccc2)C1=O [Compound 9d, 4-Bromo-N-[1-tert-butyl-2-oxo-3-phenylimidazolidin-4-ylidene]benzenesulfonamide]
inhibition at 10 µM ([1]; max conc. tested 10 µM): 17.4% | Ki [2]: > 10 µM | inhibition at 10 µM ([2]; read-out: % Displacement/ Max Conc. Tested, hCB2R): 53.5%

CC(C)(C)N1CC(=NS(=O)(=O)c2cccc(Br)c2)N(c2ccccc2)C1=O [Compound 9e, 3-Bromo-N-[1-tert-butyl-2-oxo-3-phenylimidazolidin-4-ylidene]benzenesulfonamide]
Ki [1]: > 10 µM | inhibition at 10 µM ([1]; max conc. tested 10 µM): 4.64% | Ki [2]: > 10 µM | inhibition at 10 µM [2, 3]: 24.1%

Cc1cc(C)c(S(=O)(=O)N=C2CN(C(C)(C)C)C(=O)N2c2ccccc2)c(C)c1 [Compound 9f, N-[1-tert-Butyl-2-oxo-3-phenylimidazolidin-4-ylidene]-2,4,6-trimethylbenzenesulfonamide]
Ki [1]: > 10 µM | inhibition at 10 µM ([1]; max conc. tested 10 µM): 0% | Ki [2]: > 10 µM | inhibition at 10 µM [2, 3]: 47.8%

CC(C)(C)N1CC(=NS(=O)(=O)c2cccc3ccccc23)N(c2ccccc2)C1=O [Compound 9g, N-[1-tert-Butyl-2-oxo-3-phenylimidazolidin-4-ylidene]naphthalene-1-sulfonamide]
Ki [1]: > 10 µM | inhibition at 10 µM [1]: 14.8% | Ki [2]: > 10 µM | inhibition at 10 µM [2, 3]: 11%

CC(C)(C)N1CC(=NS(=O)(=O)c2ccc3ccccc3c2)N(c2ccccc2)C1=O [Compound 9h, N-[1-tert-Butyl-2-oxo-3-phenylimidazolidin-4-ylidene]naphthalene-2-sulfonamide]
Ki [1]: > 10 µM | inhibition at 10 µM [1]: 8.35% | Ki [2]: > 10 µM | inhibition at 10 µM [2, 3]: 35.6%

CC(C)(C)N1CC(=NS(C)(=O)=O)N(CC2CC2)C1=O [Compound 10a, N-[1-tert-Butyl-3-cyclopropylmethyl-2-oxoimidazolidin-4-ylidene]methanesulfonamide]
Ki [1]: > 10 µM | inhibition at 10 µM [1]: 16.3% | melting point: 83.5 to 84 °C | Ki [2]: > 10 µM | inhibition at 10 µM [2, 3]: 13.4%

Cc1ccc(S(=O)(=O)N=C2CN(C(C)(C)C)C(=O)N2CC2CC2)cc1 [Compound 10c, N-[1-tert-Butyl-3-cyclopropylmethyl-2-oxoimidazolidin-4-ylidene]-4-methylbenzenesulfonamide]
Ki [1]: > 10 µM | inhibition at 10 µM [1]: 0% | melting point: 104.5 to 105 °C | Ki [2]: 1.47 ± 0.05 µM | inhibition at 25 µM ([2]; max conc. tested 25 µM, read-out: % Displacement/ Max Conc. Tested, hCB2R (converted)): 89.5%

CC(C)(C)N1CC(=NS(=O)(=O)c2ccc3ccccc3c2)N(CC2CC2)C1=O [Compound 10h, N-[1-tert-Butyl-3-cyclopropylmethyl-2-oxoimidazolidin-4-ylidene]naphthalene-2-sulfonamide]
Ki [1]: > 10 µM | inhibition at 10 µM [1]: 8.18% | Ki [2]: 0.78 ± 0.17 µM | inhibition at 10 µM [2, 3]: 72.3%

CC(C)N1CC(=NS(=O)(=O)c2cccc3ccccc23)N(CC2CC2)C1=O [Compound 13, N-[3-(cyclopropylmethyl)-2-oxo-1-(propan-2-yl)imidazolidin-4-ylidene]naphthalene-1-sulfonamide]
Ki [1]: > 10 µM | inhibition at 10 µM [1]: 4.63% | Ki [2]: 0.8 ± 0.02 µM | inhibition at 10 µM [2, 3]: 78.3%

Cc1ccc(S(=O)(=O)N=C2CN(C(C)(C)C)C(=O)N2CC(C)C)cc1 [Compound 14, N-[1-tert-Butyl-3-(2-methylpropyl)-2-oxoimidazolidin-4-ylidene]-4-methylbenzene-1-sulfonamide]
Ki [1]: > 10 µM | inhibition at 10 µM [1]: 0.02% | Ki [2]: > 10 µM | inhibition at 10 µM [2, 3]: 47.8%

CC(C)(C)N1C(=O)N(CC2CC2)CC1=NS(=O)(=O)c1ccccc1 [Compound 15, N-[3-tert-Butyl-1-(cyclopropylmethyl)-2-oxoimidazolidin-4-ylidene]benzenesulfonamide]
Ki [1]: > 10 µM | inhibition at 10 µM [1]: 0.01% | Ki [2]: 1.61 ± 0.16 µM | inhibition at 10 µM [2, 3]: 73.9%

From article PMC9738591, “N-[1,3-Dialkyl(aryl)-2-oxoimidazolidin-4-ylidene]-aryl(alkyl)sulphonamides as Novel Selective Human Cannabinoid Type 2 Receptor (hCB2R) Ligands; Insights into the Mechanism of Receptor Activation/Deactivation” (Molecules, 2022)
